This is an account of results in US20250092065A1, “2-(INDAZOL-5-YL)-6-(PIPERIDIN-4-YL)-1,7-NAPHTHYRIDINE DERIVATIVES AND RELATED COMPOUNDS AS MODULATORS FOR SPLICING NUCLEIC ACIDS AND FOR THE TREATMENT OF PROLIFERATIVE DISEASES” (REMIX THERAPEUTICS INC., priority 2022, published 2025).

One series has as its system K562 cells. As to the kind of experiment: Cell Titer Glo 2.0 cell viability (toxicity) assay, K562. To be noted: 500 cells/well, 72 hours.
The next series has as its system HTT. As to the kind of experiment: HiBiT protein abundance assay, HTT (K562 HiBiT knock-in). The note with it: HiBiT knock-in K562 cells, 24 hours, top dose 10 μM. The series is classed as cell-based, human. The method, boiled down: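 Luminescence readout: Nano-Glo HiBiT lytic detection after 24 h compound exposure of K562 HiBiT knock-in cells, 10000 cells/well. Dosing 10-pt, 3-fold, top 10 μM final. % response vs untreated parental K562 and DMSO controls; 4PL fit, IC50 = concentration giving 50% protein abundance.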

In series [1] the test system is Target C. As to the kind of experiment: HiBiT protein abundance assay, Target C (K562 HiBiT knock-in). To be noted: HiBiT knock-in K562 cells, 24 hours, top dose 10 μM. The format is cell-based, human. The method, boiled down:
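K562 HiBiT knock-in cells (10000/well) were treated 24 h at 37° C with a 10-point 3-fold dilution series (top 10 μM final, ≤0.25% DMSO). HiBiT luminescence was read after lytic LgBiT detection. Percent response used unmodified K562 and DMSO-treated knock-in controls, and IC50 came from a four-parameter fit at 50% of untreated.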

The subject of series [2] is Target C. As to the kind of experiment: RT-qPCR canonical junction panel assay, Target C mRNA. The format is cell-based. To be noted: Table 4, read-out: Target C IC50 (decrease in CJ mRNA levels). The method, boiled down: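 IC50 is the concentration giving 50% CJ decrease, from a 4-parameter logistic fit of percent response; response derived from ΔΔCt against housekeeper and DMSO over a fixed ΔCt window, with canonical exon-junction qPCR in compound-treated K562 or A673 cells.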
(Real-time PCR tracks product formation cycle by cycle.)

Where a name gives a salt, the structure may show the parent alone. A value given as a limit tells only on which side of the number the result lay.

Description for K562 cells: Compounds described herein were screened for toxicity in K562 (human chronic myelogenous leukemia) and SH-SY5Y (human neuroblastoma) cells using a Cell Titer Glo 2.0 assay.
Cells were plated at 500 cells/well (K562 cells) in 45 μL of IMDM supplemented with 10% FBS in a 384-well opaque plate. Wells containing only medium were used as a blank control. Test compounds (e.g., compounds of Formula (I) or (II)) were first serially diluted in DMSO then diluted 1:100 with EIDM+10% FBS. The final concentration of DMSO was 0.1% in each well. The cells were incubated for 72 hours at 37° C. and 5% CO2 before assaying with Cell Titer Glo 2.0 reagent.

As for `C[C@@H]1CN(c2ccc3nc(-c4cc5cn(C)nc5c(F)c4O)nc(C(N)=O)c3c2)C[C@H](C)N1` [Compound 712, 6-[(3R,5S)-3,5-dimethylpiperazin-1-yl]-2-(7-fluoro-6-hydroxy-2-methylindazol-5-yl) quinazoline-4-carboxamide], the “Effect of Exemplary Compounds on Cell Viability, K562” value (“Effect of Exemplary Compounds” for short) in the series with K562 cells was “A (A represents <100 nM)”. Moreover, the values for the IC50 in the series with HTT, in the series on Target C [1] and in the series on Target C [2] were 100 to 1000 nM, 1000 to 10000 nM and over 10000 nM, respectively.

For `CC(=O)c1nc(-c2cc3cn(C)nc3c(F)c2O)nc2ccc(N3C[C@@H](C)N[C@@H](C)C3)cc12` [Compound 717, 1-{6-[(3R,5S)-3,5-dimethylpiperazin-1-yl]-2-(7-fluoro-6-hydroxy-2-methylindazol-5-yl)quinazolin-4-yl}ethanone], the “Effect of Exemplary Compounds” value in the series on K562 cells is “A (A represents <100 nM)”. The IC50 in the series on HTT, in the series on Target C [1] and in the series with Target C [2] was 100 to 1000 nM each time.

On to `CNC(=O)c1nc(-c2cc3cn(C)nc3c(F)c2O)nc2ccc(N3CCC(N4CCC4)CC3)cc12` [Compound 722, 6-[4-(azetidin-1-yl)piperidin-1-yl]-2-(7-fluoro-6-hydroxy-2-methylindazol-5-yl)-N-methylquinazoline-4-carboxamide], for which the “Effect of Exemplary Compounds” value in the series on K562 cells was “A (A represents <100 nM)”. For the same molecule, the IC50 (usually the concentration that inhibits the measured activity by half) with HTT is under 100 nM; in the series on Target C [1], 100 to 1000 nM; with Target C [2] it was 100 to 1000 nM.

For `Cc1cc(N2C[C@@H](C)N[C@@H](C)C2)cc2c(Cl)cc(-c3cc4cn(C)nc4c(F)c3O)nc12` [Compound 723, 5-{4-chloro-6-[(3R,5S)-3,5-dimethylpiperazin-1-yl]-8-methylquinolin-2-yl}-7-fluoro-2-methylindazol-6-ol], the “Effect of Exemplary Compounds” value with K562 cells is on record as “A (A represents <100 nM)”. Besides, the IC50 in the series on HTT was under 100 nM; in the series on Target C [1], under 100 nM; in the series with Target C [2], 100 to 1000 nM.

Take `CNC(=O)c1nc(-c2cc3cn(C)nc3c(F)c2O)nc2ccc(N3CCNC4(CC4)C3)cc12` [Compound 728, 6-{4,7-diazaspiro[2.5]octan-7-yl}-2-(7-fluoro-6-hydroxy-2-methylindazol-5-yl)-N-methylquinazoline-4-carboxamide]: the “Effect of Exemplary Compounds” value in the series on K562 cells is reported as “A (A represents <100 nM)”. Besides, the results for the IC50 with HTT, in the series on Target C [1] and in the series with Target C [2] were 100 to 1000 nM, 100 to 1000 nM and 1000 to 10000 nM, respectively.

`CNC(=O)c1nc(-c2cc3cn(C)nc3c(F)c2O)nc2ccc(N3CC[C@@H](NC)C3)cc12` [Compound 729, 2-(7-fluoro-6-hydroxy-2-methylindazol-5-yl)-N-methyl-6-[(3R)-3-(methylamino)pyrrolidin-1-yl]quinazoline-4-carboxamide]: in the series with K562 cells, the “Effect of Exemplary Compounds” value is “A (A represents <100 nM)”. The IC50 with HTT, in the series on Target C [1] and in the series with Target C [2] was under 100 nM each time.

`C[C@@H]1CN(c2ccc3nc(-c4cc5cn(C)nc5c(F)c4O)nc(-c4nccs4)c3c2)C[C@H](C)N1` [Compound 732, 5-{6-[(3R,5S)-3,5-dimethylpiperazin-1-yl]-4-(1,3-thiazol-2-yl)quinazolin-2-yl}-7-fluoro-2-methylindazol-6-ol]: the “Effect of Exemplary Compounds” value in the series on K562 cells is recorded as “B (B represents 100-1000 nM)”. Further, the IC50 was 1000 to 10000 nM in the series with HTT, 1000 to 10000 nM with Target C [1] and over 10000 nM in the series on Target C [2].

As to `C[C@@H]1CN(c2ccc3nc(-c4cc5cn(C)nc5c(F)c4O)nc(C(=O)NCCO)c3c2)C[C@H](C)N1` [Compound 737, 6-[(3R,5S)-3,5-dimethylpiperazin-1-yl]-2-(7-fluoro-6-hydroxy-2-methylindazol-5-yl)-N-(2-hydroxyethyl)quinazoline-4-carboxamide], in the series with K562 cells, the “Effect of Exemplary Compounds” value is recorded as “A (A represents <100 nM)”. In addition, the IC50 in the series with HTT, in the series with Target C [1] and with Target C [2] was 1000 to 10000 nM in each case.

In the case of `CNC(=O)c1nc(-c2cc3cn(C)nc3cc2O)nc2ccc(N3CCC(N(C)C)CC3)cc12` [Compound 742, 6-[4-(dimethylamino)piperidin-1-yl]-2-(6-hydroxy-2-methylindazol-5-yl)-N-methylquinazoline-4-carboxamide], in the series on K562 cells, the “Effect of Exemplary Compounds” value was “A (A represents <100 nM)”. Besides, the IC50 was 1000 to 10000 nM with HTT, over 10000 nM in the series on Target C [1] and over 10000 nM in the series with Target C [2].

In the case of `C[C@@H]1CN(c2ccc3nc(-c4cc5cn(C)nc5c(F)c4O)ncc3c2)C[C@H](C)N1` [Compound 743, 5-{6-[(3R,5S)-3,5-dimethylpiperazin-1-yl]quinazolin-2-yl}-7-fluoro-2-methylindazol-6-ol], the “Effect of Exemplary Compounds” value in the series on K562 cells was “C (C represents 1000-9999 nM)”. The IC50 in the series on HTT, in the series on Target C [1] and with Target C [2] was 1000 to 10000 nM each time.

As to `C[C@H]1CN(c2ccc3nc(-c4cc5cn(C)nc5c(F)c4O)ncc3c2)C[C@H](C)N1` [Compound 744, 5-{6-[(3S,5S)-3,5-dimethylpiperazin-1-yl]quinazolin-2-yl}-7-fluoro-2-methylindazol-6-ol], the “Effect of Exemplary Compounds” value with K562 cells is on record as “A (A represents <100 nM)”. Besides, the IC50 with HTT is under 100 nM; in the series with Target C [1], under 100 nM; with Target C [2], 1000 to 10000 nM.

In the case of `C[C@@H]1CN(c2ccc3nc(-c4cc5cn(C)nc5c(F)c4O)ncc3c2)C[C@@H](C)N1` [Compound 745, 5-{6-[(3R,5R)-3,5-dimethylpiperazin-1-yl]quinazolin-2-yl}-7-fluoro-2-methylindazol-6-ol], the “Effect of Exemplary Compounds” value with K562 cells is recorded as “A (A represents <100 nM)”. Further, the IC50 with HTT was in the range of 100 to 1000 nM; with Target C [1] it was 100 to 1000 nM; in the series on Target C [2], 1000 to 10000 nM.

With `CN[C@@H]1CCN(c2cc3c(Cl)cc(-c4cc5cn(C)nc5c(C)c4O)nc3cc2C)C1` [Compound 748, 5-{4-chloro-7-methyl-6-[(3R)-3-(methylamino)pyrrolidin-1-yl]quinolin-2-yl}-2,7-dimethylindazol-6-ol], the “Effect of Exemplary Compounds” value with K562 cells is listed as “B (B represents 100-1000 nM)”. The IC50 in the series on HTT, with Target C [1] and in the series with Target C [2] was over 10000 nM each time.

Take `CN[C@H]1CCN(c2cc3c(Cl)cc(-c4cc5cn(C)nc5c(C)c4O)nc3cc2C)C1` [Compound 749, 5-{4-chloro-7-methyl-6-[(3S)-3-(methylamino)pyrrolidin-1-yl]quinolin-2-yl}-2,7-dimethylindazol-6-ol]: the “Effect of Exemplary Compounds” value in the series on K562 cells was “B (B represents 100-1000 nM)”. In addition, the half-maximal inhibitory concentration (IC50) was over 10000 nM in the series on HTT, over 10000 nM in the series on Target C [1] and 1000 to 10000 nM in the series with Target C [2].

With `Cn1cc2cc(-c3ncc4cc(N5CCC(N6CCC6)CC5)ccc4n3)c(O)c(F)c2n1` [Compound 750, 5-{6-[4-(azetidin-1-yl)piperidin-1-yl]quinazolin-2-yl}-7-fluoro-2-methylindazol-6-ol], the “Effect of Exemplary Compounds” value in the series with K562 cells is listed as “B (B represents 100-1000 nM)”. The IC50 in the series on HTT, in the series on Target C [1] and with Target C [2] was 100 to 1000 nM throughout.

`C[C@@H]1CN(c2ccc3nc(-c4cc5cn(C)nc5cc4O)ncc3c2)C[C@H](C)N1` [Compound 751, 5-{6-[(3R,5S)-3,5-dimethylpiperazin-1-yl]quinazolin-2-yl}-2-methylindazol-6-ol hydrochloride]: in the series with K562 cells, the “Effect of Exemplary Compounds” value is “B (B represents 100-1000 nM)”. The half-maximal inhibitory concentration (IC50) in the series with HTT, in the series with Target C [1] and in the series on Target C [2] was over 10000 nM throughout.

Regarding `C[C@H]1CN(c2ccc3nc(-c4cc5cn(C)nc5cc4O)ncc3c2)C[C@H](C)N1` [Compound 752, 5-{6-[(3S,5S)-3,5-dimethylpiperazin-1-yl]quinazolin-2-yl}-2-methylindazol-6-ol], in the series on K562 cells, the “Effect of Exemplary Compounds” value was “B (B represents 100-1000 nM)”. For the same molecule, the IC50 is 100 to 1000 nM in the series with HTT, 100 to 1000 nM in the series with Target C [1] and over 10000 nM with Target C [2].

Regarding `C[C@@H]1CN(c2ccc3nc(-c4cc5cn(C)nc5cc4O)ncc3c2)C[C@@H](C)N1` [Compound 753, 5-{6-[(3R,5R)-3,5-dimethylpiperazin-1-yl]quinazolin-2-yl}-2-methylindazol-6-ol], the “Effect of Exemplary Compounds” value in the series with K562 cells was “A (A represents <100 nM)”. Also, the IC50 with HTT was 100 to 1000 nM; with Target C [1] it was 100 to 1000 nM; in the series on Target C [2], over 10000 nM.

`CCN(CC)C1CCN(c2ccc3nc(-c4cc5cn(C)nc5c(F)c4O)ncc3c2)CC1` [Compound 756, 5-{6-[4-(diethylamino)piperidin-1-yl]quinazolin-2-yl}-7-fluoro-2-methylindazol-6-ol]: the “Effect of Exemplary Compounds” value in the series with K562 cells is reported as “B (B represents 100-1000 nM)”. In addition, the IC50 in the series with HTT, in the series on Target C [1] and in the series on Target C [2] was 100 to 1000 nM each time.
